Tests used:
[1] = system: T-Rex 293 cell line SC3 cells having increased expression of androgen receptor protein due to exposure to doxycycline; test: Cellular growth inhibition, T-Rex 293 SC3 cells with doxycycline (androgen receptor induced), CellTiter-Glo; format: cell-based; conditions: T-Rex 293 SC3 cells with 10 ng/mL doxycycline (increased androgen receptor expression)
In short: (§1)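 GI50 came from a four-parameter fit of CellTiter-Glo 2.0 luminescence after 72 h compound exposure (0.5% DMSO, 37 °C), dosing 24 h post-seeding. SC3 clone cells (2500/well), transfected with wild-type androgen receptor, grew in charcoal-stripped serum medium lacking phenol red, induced with 10 ng/mL doxycycline or left uninduced.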

[2] = system: T-Rex 293 cell line SC3 cells lacking increased expression of androgen receptor protein; test: Cellular growth inhibition, T-Rex 293 SC3 cells without doxycycline, CellTiter-Glo; format: cell-based; conditions: T-Rex 293 SC3 cells not exposed to doxycycline, CellTiter-Glo 2.0
In short: as §1

VCaP cells = test: Cellular growth inhibition assay for VCaP cells, CellTiter-Glo; format: cell-based, human; conditions: 72 hours treatment, CellTiter-Glo 2.0
In short: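 GI50 values come from four-parameter curve fits of luminescence data normalized to a zero baseline. Compound, in medium with 0.5% DMSO, was added one day after plating and left for 72 h before CellTiter-Glo 2.0 addition.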

T47D cells = test: Cellular growth inhibition assay for T47D cells, CellTiter-Glo; format: cell-based, human; conditions: 72 hours treatment, CellTiter-Glo 2.0 cell viability
In short: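 Cells are plated at 3000/well and allowed 24 h before treatment. Test compound in medium containing 0.5% DMSO is then added, with DMSO-only wells as negative control, and plates are incubated 72 h at 37 °C. ATP luminescence (CellTiter-Glo 2.0) is then fitted to four parameters to derive GI50.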

Row | Compound | GI50 ([1]; 72 h) | GI50 ([2]; 72 h) | GI50 (VCaP cells; Homo sapiens, VCaP, 72 h) | GI50 (T47D cells; Homo sapiens, T47D, 72 h) | GI50 ([1]; 72 hours) | GI50 ([2]; 72 hours) | GI50 (VCaP cells) | GI50 (T47D cells)
1 | Cc1sc2c(c1C)C(c1ccc([C@H]3C[C@H]([C@H]4CCN(c5ncc(C(=O)N[C@H]6C(C)(C)[C@H](Oc7ccc(C#N)c(Cl)c7)C6(C)C)cn5)C4)C3)cc1)=N[C@@H](Cc1ncco1)c1nnc(C)n1-2 [Compound I-416] | < 0.5 µM | > 3 µM | < 0.5 µM | < 0.5 µM |  |  |  | 
2 | Cc1sc2c(c1C)C(c1ccc([C@H]3C[C@@H]([C@H]4CCN(c5ncc(C(=O)N[C@H]6C(C)(C)[C@H](Oc7ccc(C#N)c(Cl)c7)C6(C)C)cn5)C4)C3)cc1)=N[C@H](Cc1ncco1)c1nnc(C)n1-2 [Compound I-417] | < 0.5 µM | < 0.5 µM | < 0.5 µM | < 0.5 µM |  |  |  | 
3 | Cc1sc2c(c1C)C(c1ccc([C@H]3C[C@H]([C@H]4CCN(c5ncc(C(=O)N[C@H]6C(C)(C)[C@H](Oc7ccc(C#N)c(Cl)c7)C6(C)C)cn5)C4)C3)cc1)=N[C@H](Cc1ncco1)c1nnc(C)n1-2 [Compound I-418] | < 0.5 µM | < 0.5 µM | < 0.5 µM | < 0.5 µM |  |  |  | 
4 | Cc1sc2c(c1C)C(c1ccc([C@H]3C[C@@H]([C@@H]4CCCN(c5ncc(C(=O)N[C@H]6C(C)(C)[C@H](Oc7ccc(C#N)c(Cl)c7)C6(C)C)cn5)C4)C3)cc1)=N[C@@H](Cc1ncco1)c1nnc(C)n1-2 [Compound I-419] | > 3 µM | > 3 µM | > 3 µM | > 3 µM |  |  |  | 
5 | Cc1sc2c(c1C)C(c1ccc([C@H]3C[C@H]([C@H]4CCCN(c5ncc(C(=O)N[C@H]6C(C)(C)[C@H](Oc7ccc(C#N)c(Cl)c7)C6(C)C)cn5)C4)C3)cc1)=N[C@@H](Cc1ncco1)c1nnc(C)n1-2 [Compound I-420] | > 3 µM | > 3 µM | > 3 µM | > 3 µM |  |  |  | 
6 | Cc1sc2c(c1C)C(c1ccc([C@H]3C[C@@H]([C@H]4CCCN(c5ncc(C(=O)N[C@H]6C(C)(C)[C@H](Oc7ccc(C#N)c(Cl)c7)C6(C)C)cn5)C4)C3)cc1)=N[C@@H](Cc1ncco1)c1nnc(C)n1-2 [Compound I-421] | < 0.5 µM | > 3 µM | < 0.5 µM | < 0.5 µM |  |  |  | 
7 | Cc1sc2c(c1C)C(c1ccc([C@H]3C[C@H]([C@@H]4CCCN(c5ncc(C(=O)N[C@H]6C(C)(C)[C@H](Oc7ccc(C#N)c(Cl)c7)C6(C)C)cn5)C4)C3)cc1)=N[C@@H](Cc1ncco1)c1nnc(C)n1-2 [Compound I-422] | < 0.5 µM | > 3 µM | < 0.5 µM | < 0.5 µM |  |  |  | 
8 | Cc1sc2c(c1C)C(c1ccc([C@H]3C[C@H]([C@@H]4CCCN(c5ncc(C(=O)N[C@H]6C(C)(C)[C@H](Oc7ccc(C#N)c(Cl)c7)C6(C)C)cn5)C4)C3)cc1)=N[C@@H](Cc1ncco1)c1nnc(C)n1-2 [Compound I-423] |  |  |  |  | < 0.5 µM | > 3 µM | < 0.5 µM | 0.5 to 1.5 µM
9 | Cc1sc2c(c1C)C(c1ccc(CCN3CC[C@]4(C3)CN(c3ncc(C(=O)N[C@H]5C(C)(C)[C@H](Oc6ccc(C#N)c(Cl)c6)C5(C)C)cn3)CC(F)(F)C4)cc1)=N[C@@H](Cc1ncco1)c1nnc(C)n1-2 [Compound I-424] | < 0.5 µM | > 3 µM | < 0.5 µM | < 0.5 µM |  |  |  | 
10 | Cc1sc2c(c1C)C(c1ccc(CCN3CC[C@@]4(C3)CN(c3ncc(C(=O)N[C@H]5C(C)(C)[C@H](Oc6ccc(C#N)c(Cl)c6)C5(C)C)cn3)CC(F)(F)C4)cc1)=N[C@@H](Cc1ncco1)c1nnc(C)n1-2 [Compound I-425] | < 0.5 µM | > 3 µM | < 0.5 µM | < 0.5 µM |  |  |  | 
11 | Cc1sc2c(c1C)C(c1ccc(C[C@H]3C[C@@H](OC4CCN(c5ncc(C(=O)N[C@H]6C(C)(C)[C@H](Oc7ccc(C#N)c(Cl)c7)C6(C)C)cn5)CC4)C3)cc1)=N[C@@H](Cc1ncco1)c1nnc(C)n1-2 [Compound I-426] | < 0.5 µM | > 3 µM | < 0.5 µM | < 0.5 µM |  |  |  | 
12 | Cc1sc2c(c1C)C(c1ccc(C[C@H]3C[C@@H](OC4CCN(c5ncc(C(=O)N[C@H]6C(C)(C)[C@H](Oc7ccc(C#N)c(Cl)c7)C6(C)C)cn5)CC4)C3)cc1)=N[C@@H](Cc1ncco1)c1nnc(C)n1-2 [Compound I-427] |  |  |  |  | < 0.5 µM | > 3 µM | < 0.5 µM | < 0.5 µM
13 | Cc1sc2c(c1C)C(c1ccc([C@H]3CC[C@@]4(C3)CN(c3ncc(C(=O)N[C@H]5C(C)(C)[C@H](Oc6ccc(C#N)c(Cl)c6)C5(C)C)cn3)CCO4)cc1)=N[C@@H](Cc1ncco1)c1nnc(C)n1-2 [Compound I-428] | < 0.5 µM | > 3 µM | > 3 µM | > 3 µM |  |  |  | 
14 | Cc1sc2c(c1C)C(c1ccc(CC(C)(C)N3CC4(CCCN(c5ncc(C(=O)N[C@H]6C(C)(C)[C@H](Oc7ccc(C#N)c(Cl)c7)C6(C)C)cn5)C4)C3)cc1)=N[C@@H](Cc1ncco1)c1nnc(C)n1-2 [Compound I-429] | < 0.5 µM | 1.5 to 3 µM | < 0.5 µM | < 0.5 µM |  |  |  | 
15 | Cc1sc2c(c1C)C(c1ccc(-n3ncc(C4CCN(c5ncc(C(=O)N[C@H]6C(C)(C)[C@H](Oc7ccc(C#N)c(Cl)c7)C6(C)C)cn5)CC4)n3)cc1)=N[C@@H](Cc1ncco1)c1nnc(C)n1-2 [Compound I-430] | < 0.5 µM | < 0.5 µM | < 0.5 µM | < 0.5 µM |  |  |  | 
16 | Cc1sc2c(c1C)C(c1ccc(-c3csnc3OC3CCN(c4ncc(C(=O)N[C@H]5C(C)(C)[C@H](Oc6ccc(C#N)c(Cl)c6)C5(C)C)cn4)CC3)cc1)=N[C@@H](Cc1ncco1)c1nnc(C)n1-2 [Compound I-431] | < 0.5 µM | > 3 µM | < 0.5 µM | > 3 µM |  |  |  | 
17 | Cc1sc2c(c1C)C(c1ccc(-c3conc3OC3CCN(c4ncc(C(=O)N[C@H]5C(C)(C)[C@H](Oc6ccc(C#N)c(Cl)c6)C5(C)C)cn4)CC3)cc1)=N[C@@H](Cc1ncco1)c1nnc(C)n1-2 [Compound I-432] | < 0.5 µM | > 3 µM | < 0.5 µM | > 3 µM |  |  |  | 
18 | [2H]C([2H])(c1ccc(C2=N[C@@H](Cc3ncco3)c3nnc(C)n3-c3sc(C)c(C)c32)cc1)N1CC[C@@]2(CCCN(c3ncc(C(=O)N[C@H]4C(C)(C)[C@H](Oc5ccc(C#N)c(Cl)c5)C4(C)C)cn3)C2)C1 [Compound I-433] | < 0.5 µM | < 0.5 µM | < 0.5 µM | 0.5 to 1.5 µM |  |  |  | 
19 | [2H]C([2H])(c1ccc(C2=N[C@@H](Cc3ncco3)c3nnc(C)n3-c3sc(C)c(C)c32)cc1)N1CC[C@]2(CCCN(c3ncc(C(=O)N[C@H]4C(C)(C)[C@H](Oc5ccc(C#N)c(Cl)c5)C4(C)C)cn3)C2)C1 [Compound I-434] | < 0.5 µM | > 3 µM | < 0.5 µM | < 0.5 µM |  |  |  | 
20 | Cc1sc2c(c1C)C(c1ccc(N3CCC(C4CCN(c5cnc(C(=O)N[C@H]6C(C)(C)[C@H](Oc7ccc(C#N)c(Cl)c7)C6(C)C)cn5)CC4)CC3)cc1)=N[C@@H](C)c1nnc(C)n1-2 [Compound I-437] | < 0.5 µM | > 3 µM | > 3 µM | < 0.5 µM |  |  |  | 
21 | Cc1sc2c(c1C)C(c1ccc(C(C)(C)N3CC4(CCN(c5ncc(C(=O)N[C@H]6C(C)(C)[C@H](Oc7ccc(C#N)c(Cl)c7)C6(C)C)cn5)CC4)C3)cc1)=N[C@@H](Cc1ncco1)c1nnc(C)n1-2 [Compound I-438] |  | 1.5 to 3 µM |  |  | < 0.5 µM |  | 0.5 to 1.5 µM | > 3 µM

Reference: patent US20260062422A1 (Halda Therapeutics OpCo, Inc., priority 2022, published 2026)
